Reference: patent US8299077B2 (Roche Palo Alto LLC, priority 2009, dated 2012)

Tests used:
[1] = tested on: B cell receptor-mediated activation of B cells in human blood (CD69 expression); assay: Inhibition of B cell activation in whole blood measured by CD69 expression; format: cell-based; details: anti-IgM stimulation, 20 h, 50% decrease of CD69-positive cells that are also CD20-positive
How it was run: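 Healthy-donor human whole blood (heparin) preincubated with compound (nine-point, three-fold dilutions) for 30 min at 37 °C, then stimulated with goat F(ab′)2 anti-human IgM (50 μg/ml final) for 20 h. CD69-positive B cells (CD20 gating) measured by flow cytometry as percent positive; IC50 from dose-response fit.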

| melting point | IC50 [1] | Structure (SMILES) |
| --- | --- | --- |
| 218 to 220 °C | – | Cn1cc(-c2cccc(-n3ncc4cc(C(C)(C)C)cc(F)c4c3=O)c2CO)cc(Nc2ccc(C(C)(C)C(=O)O)cn2)c1=O [Example 18, 2-(6-{5-[3-(6-tert-butyl-8-fluoro-1-oxo-1H-phthalazin-2-yl)-2-hydroxymethyl-phenyl]-1-methyl-2-oxo-1,2-dihydro-pyridin-3-ylamino}-pyridin-3-yl)-2-methyl-propionic acid] |
| > 300 °C | – | CN1CC(Oc2ccc(Nc3cc(-c4cccc(-n5ncc6cc(C(C)(C)C)cc(F)c6c5=O)c4CO)cn(C)c3=O)nc2)C1 [Example 27, 6-tert-Butyl-8-fluoro-2-(2-hydroxymethyl-3-{1-methyl-5-[5-(1-methyl-azetidin-3-yloxy)-pyridin-2-ylamino]-6-oxo-1,6-dihydro-pyridin-3-yl}-phenyl)-2H-phthalazin-1-one] |
| 265 to 268 °C | – | CCNCc1ccc(Nc2cc(-c3cccc(-n4ncc5cc(C(C)(C)C)cc(F)c5c4=O)c3CO)cn(C)c2=O)nc1 [Example 29, 6-tert-Butyl-2-{3-[5-(5-ethylaminomethyl-pyridin-2-ylamino)-1-methyl-6-oxo-1,6-dihydro-pyridin-3-yl]-2-hydroxymethyl-phenyl}-8-fluoro-2H-phthalazin-1-one] |
| 200 to 205 °C | – | Cn1cc(-c2cccc(-n3ncc4cc(C(C)(C)C)cc(F)c4c3=O)c2CO)cc(Nc2ccc(C(C)(C)O)cn2)c1=O [Example 37, 6-tert-Butyl-8-fluoro-2-(2-hydroxymethyl-3-{5-[5-(1-hydroxy-1-methyl-ethyl)-pyridin-2-ylamino]-1-methyl-6-oxo-1,6-dihydro-pyridin-3-yl}-phenyl)-2H-phthalazin-1-one] |
| 195 to 200 °C | – | CCNC(C)(C)c1ccc(Nc2cc(-c3cccc(-n4ncc5cc(C(C)(C)C)cc(F)c5c4=O)c3CO)cn(C)c2=O)nc1 [Example 260, 6-tert-Butyl-2-(3-{5-[5-(1-ethylamino-1-methyl-ethyl)-pyridin-2-ylamino]-1-methyl-6-oxo-1,6-dihydro-pyridin-3-yl}-2-hydroxymethyl-phenyl)-8-fluoro-2H-phthalazin-1-one] |
| 235 to 238 °C | 7 nM | CN1CCN(Cc2ccc(Nc3cc(-c4cccc(-n5ncc6cc(C(C)(C)C)cc(F)c6c5=O)c4CO)cn(C)c3=O)nc2)CC1 [Example I-15, 6-tert-butyl-8-fluoro-2-(2-hydroxymethyl-3-{1-methyl-5-[5-(4-methyl-piperazin-1-ylmethyl)-pyridin-2-ylamino]-6-oxo-1,6-dihydro-pyridin-3-yl}-phenyl)-2H-phthalazin-1-one] |
| – | 31 nM | Cn1cc(-c2cccc(-n3ccc4cc(C(C)(C)O)cc(F)c4c3=O)c2CO)nc(Nc2cnn(CC(F)F)c2)c1=O [Example I-80, 2-(3-{6-[1-(2,2-Difluoro-ethyl)-1H-pyrazol-4-ylamino]-4-methyl-5-oxo-4,5-dihydro-pyrazin-2-yl}-2-hydroxymethyl-phenyl)-8-fluoro-6-(1-hydroxy-1-methyl-ethyl)-2H-isoquinolin-1-one] |
| – | 13 nM | CCn1cc(Nc2nc(-c3cccc(-n4ccc5cc(C(C)(C)O)cc(F)c5c4=O)c3CO)cn(C)c2=O)cn1 [Example I-81, 2-{3-[6-(1-Ethyl-1H-pyrazol-4-ylamino)-4-methyl-5-oxo-4,5-dihydro-pyrazin-2-yl]-2-hydroxymethyl-phenyl}-8-fluoro-6-(1-hydroxy-1-methyl-ethyl)-2H-isoquinolin-1-one] |
| – | 57 nM | CC(O)Cn1cc(Nc2nc(-c3cccc(-n4ccc5cc(C6CC6)cc(F)c5c4=O)c3CO)cn(C)c2=O)cn1 (stereo not shown) [Example I-82, 6-Cyclopropyl-8-fluoro-2-(2-hydroxymethyl-3-{6-[1-(2-hydroxy-propyl)-1H-pyrazol-4-ylamino]-4-methyl-5-oxo-4,5-dihydro-pyrazin-2-yl}-phenyl)-2H-isoquinolin-1-one] |
| – | 10 nM | CC(O)Cn1cc(Nc2nc(-c3cccc(-n4ncc5cc(C(C)(C)C)cc(F)c5c4=O)c3CO)cn(C)c2=O)cn1 (stereo not shown) [Example I-83, 6-tert-Butyl-8-fluoro-2-(2-hydroxymethyl-3-{6-[1-(2-hydroxy-propyl)-1H-pyrazol-4-ylamino]-4-methyl-5-oxo-4,5-dihydro-pyrazin-2-yl}-phenyl)-2H-phthalazin-1-one] |
| – | 20 nM | Cn1cc(-c2cccc(-n3ncc4cc(C(C)(C)C)cc(F)c4c3=O)c2CO)nc(Nc2cnn(CC(F)F)c2)c1=O [Example I-84, 6-tert-Butyl-2-(3-{6-[1-(2,2-difluoro-ethyl)-1H-pyrazol-4-ylamino]-4-methyl-5-oxo-4,5-dihydro-pyrazin-2-yl}-2-hydroxymethyl-phenyl)-8-fluoro-2H-phthalazin-1-one] |
| – | 101 nM | Cn1cc(-c2cccc(-n3ncc4cc(C(C)(C)C)cc(F)c4c3=O)c2CO)cc(Nc2ccc(CN3CCC(N)C3)cn2)c1=O (stereo not shown) [Example I-86, 2-(3-{5-[5-(3-Amino-pyrrolidin-1-ylmethyl)-pyridin-2-ylamino]-1-methyl-6-oxo-1,6-dihydro-pyridin-3-yl}-2-hydroxymethyl-phenyl)-6-tert-butyl-8-fluoro-2H-phthalazin-1-one] |
| – | 9 nM | CNCCOc1ccc(Nc2cc(-c3cccc(-n4ncc5cc(C(C)(C)C)cc(F)c5c4=O)c3CO)cn(C)c2=O)nc1 [Example I-88, 6-tert-Butyl-8-fluoro-2-(2-hydroxymethyl-3-{1-methyl-5-[5-(2-methylamino-ethoxy)-pyridin-2-ylamino]-6-oxo-1,6-dihydro-pyridin-3-yl}-phenyl)-2H-phthalazin-1-one] |
| – | 12 nM | CN1CCN(C)C(c2ccc(Nc3nc(-c4cccc(-n5ncc6cc(C(C)(C)C)cc(F)c6c5=O)c4CO)cn(C)c3=O)cc2)C1=O (stereo not shown) [Example I-89, 6-tert-Butyl-2-(3-{6-[4-(1,4-dimethyl-3-oxo-piperazin-2-yl)-phenylamino]-4-methyl-5-oxo-4,5-dihydro-pyrazin-2-yl}-2-hydroxymethyl-phenyl)-8-fluoro-2H-phthalazin-1-one] |

| Structure (SMILES) | melting point | IC50 [1] |
| --- | --- | --- |
| Cn1cc(-c2cccc(-n3ncc4cc(C(C)(C)C)cc(F)c4c3=O)c2CO)cc(Nc2ccc(N3C[C@H]4CC[C@@H](C3)N4)cn2)c1=O [Example I-87, 6-tert-Butyl-2-(3-{5-[(1S,5R)-5-(3,8-diaza-bicyclo[3.2.1]oct-3-yl)-pyridin-2-ylamino]-1-methyl-6-oxo-1,6-dihydro-pyridin-3-yl}-2-hydroxymethyl-phenyl)-8-fluoro-2H-phthalazin-1-one] | – | 24 nM |
